# According to patent publication US20050209104A1, “Dinoflagellate karlotoxins, methods of isolation and uses thereof” (priority 2002, published 2005):
# “Also recorded” adds a separate entry of the source.
# Key:
# [1] = tested on: zebrafish (Danio rerio-60 days old); test: Effect of KmTx 2 on fish (mortality and histology); type: in vivo
# Experimental: Zebrafish (Danio rerio-60 days old) were exposed to 0.1, 0.5, 1, or 2 μg/ml KmTx 2 in 50 ml of aerated reconstituted fresh water (soft) [ASTM, 1992 #125]. Toxin dilutions were made in MeOH (200 μl max. per treatment) and controls were exposed to 200 μl MeOH only. Three fish were exposed per replicate, three replicates per treatment. […] Upon death, fish were preserved in neutral buffered formalin and prepared for histological examination as described in Noga 2000.
# [2] = tested on: Aspergillus niger (ATCC 1004); test: Anti-fungal broth microdilution assay (filamentous fungi); type: cell-based
# Experimental: The following fungal strains were purchased from the American Type Culture Collection (Manassas, Va.), Aspergillus niger (ATCC 1004) as a representative filamentous fungi, and Candida albicans (ATCC 14053) as a representative yeast. Assays were performed according to the following National Committee for Clinical Laboratory Standards documents; M27-A2 Reference Method for Broth Dilution Antifungal Susceptibility Testing of Yeasts; Approved Standard—Second Edition([NCCLS, 2002), and M38-A Reference Method for Broth Dilution Antifungal Susceptibility Testing of Filamentous Fungi; Approved Standard (NCCLS, 2002). Procedures for the broth microdilution modification were followed for both species with the following exceptions; A. niger stocks were maintained on Potato Dextrose Agar at 25° C., while C. albicans was maintained on Yeast Malt Agar at 28° C., both according to ATCC recommendations. Amphotericin B was used as a positive control. Microdilution assays were performed in HyQ-RPMI-1640 media (HyClone, Logan, Utah.), with 2.05 mM L-glutamine, without sodium bicarbonate, pH 7.2 using dilutions of 1 mg/ml DMSO stocks of KmTx 2 and amphotericin B.
# The following concentrations were tested for both KmTx2 and amphotericin B: 0.0625, 0.125, 0.25, 0.5, 1, 2, 4, 8, and 16 μg/ml. A maximum of 1.6% DMSO was added to any given well. Plates were incubated at 25 and 28° C., respectively, for A. niger and C. albicans. […] Amphotericin B and all culture media were purchased from Sigma-Aldrich (St. Louis, Mo.).
# K. micrum (CCMP 2282) = test: Exposure of Karlodinium micrum to KmTx 2; type: cell-based
# Experimental: Oxyrrhis marina (1.7×10^4 cells/mil) and K. micrum (CCMP 2282) (3.5×10^4 cells/ml) were exposed, in triplicate, to 0, 0.1, 0.5, and 1 μg/ml KmTx 2 in six well non-tissue culture treated polystyrene plates (Becton Dickinson Labware, Lincoln Park N.J.). The O. marina culture was obtained through single cell isolation from a Chesapeake Bay water sample and was maintained in 15 psu artificial sea water (Instant Ocean Brand) using Rhodomonas sp. (CCMP 767) as a food source. O. marina was starved for 24 hours prior to exposures to reduce the number of food organisms. K. micrum (CCMP 2282) was maintained in 12 psu artificial sea water (Instant Ocean Brand) with f/2 nutrient mixture plus 1% soil extract as described in Deeds et al. (2002). Cell densities were measured at 1 and 24 hours using a Coulter Multisizer II particle counter by enumerating the 7-20 μm and the […] size fractions, respectively, for K. micrum and O. marina using a Coulter Accucomp software package (Coulter Electronics Limited, Miami Fla.). […]
# Hemolytic activity remaining in solution was measured at 1 hour by mixing 100 μl of each treatment with an equal volume of diluted rainbow trout RBC suspension as described above in Example 3.
# [3] = tested on: rat embryonic fibroblast (REF 52) cells; test: Ion permeation measurement, Ca^2+ flux with fura-2 (fibroblasts); type: cell-based
# Experimental: The following cell types were tested for toxicity due to KmTx 2; rat embryonic fibroblast, rat intestional epithelial, and isolated rabbit primary sensory neurons. Cells were cultured on No. 1 glass coverslips and loaded with fluorescent indicator (fura-2) and were examined on an inverted epifluorescence microscope (model Diaphot; 40×CF Fluor objective, N.A. 1.30; Nikon Corp.) coupled to a spectrofluorometer (model CM1T10I, SPEX Industries) operating in the microfluorometry mode. Cells were bathed in 4 ml of Dulbecco's modified Eagle's medium (DMEM) buffered with HEPES (pH 7.4). KmTx 2 (stock solution in DMSO) was directly bath-applied with gentle convective mixing. Fura-2 was alternately excited at 340 and 380 nm. Fluorescence emission was passed through a 510-nm bandpass filter before photometric quantitation. DATAMAX software (SPEX Industries) was used for data acquisition and instrument control. Origin software (OriginLab Corp.) was used for data reduction and analysis
# [4] = tested on: rat ventricular cardiac myocytes; test: Ion permeation measurement, Ca^2+ with fura-2 (cardiac myocyte); type: cell-based; settings: 60 seconds after application of 0.25 μg/ml
smiles,measurement,setting,value
C=C(CC[C@H](O)[C@H]1O[C@H](C[C@@H](O)[C@H](O)[C@H](C)CCC[C@@H](O)[C@H](O)[C@H](O)[C@@H](C)CC[C@@H](O)[C@H](O)[C@H](C)C[C@@H](O)CCC[C@@H](O)CCC[C@@H](O)/C=C/C[C@@H](O)CO)[C@@H](O)[C@@H](O)[C@@H]1O)[C@H](O)[C@H](O)[C@@H]1C[C@H](O)[C@H](O)[C@@H]([C@H](O)[C@@H](O)/C=C/CCCCCCCC/C=C/C=C/Cl)O1 [KmTx 2],survival,"[1]; 0.1 μg/ml, 6 hr exposure",survived the full 6 hr exposure
same,histological examination of gills,"[1]; 0.1 μg/ml, 6 hrs",loss of secondary structure of gill lamellae and sloughing of gill epithelial tissue
same,histological examination of gills,[1]; 0.5 μg/ml,Severe necrosis and degeneration of gill tissue
same,"time to death, all fish",[1]; 0.5 μg/ml,< 1 h
same,"anti-fungal activity, fold lower than for amphotericin B","[2]; depending on species tested (A. niger, C. albicans)",10-100 fold
same,Minimal inhibitory concentration (MIC),"[2]; lowest dose with no growth after 96 hours, 25° C.",8 µg/mL
same,K. micrum culture growth,"K. micrum (CCMP 2282); 1 μg/ml, after 24 hours",continued to divide
same,effect on cultures of K. micrum,"K. micrum (CCMP 2282); 0.1, 0.5, and 1 μg/ml",no effect
same,intracellular free Ca^2+ concentration ([Ca^2+]i),[3]; 0.25 μg/ml,marked increase in intracellular free Ca^2+ concentration; also recorded: rapid increase in cytosolic Ca^2+ levels followed by slight recovery
same,intracellular free Ca^2+ concentration ([Ca^2+]i),[3]; 1 μg/ml,sharp and irreversible rise in [Ca^2+]i; also recorded: rapid rise in cytosoloc Ca^2+ levels with no recovery
same,[Ca^2+]i in cardiac myocyte,[4],dramatically elevated
